Tests used:
[1] = system: EA reactive antibody (IgG) in infectious mononucleosis (IM) sera; experiment: ELISA, EA peptides with EBV infectious mononucleosis sera; assay type: binding, human; settings: for ELISA result, peptides with and without extensions: EA positive EBV IM acute serum; for O.D.: 420 nm; for 50.1 ELISA (OD reading): IFA EA <10, OD >0.2 positive
Experimental: ELISA. The ELISA for measuring specific antibodies to p17, p50 or to the synthetic peptides was performed as previously described in detail (Luka et al., J. Immunol. Methods, 67:145-156, 1984). Aliquots of different antigen concentrations were diluted in 0.5M Na2CO3 buffer, pH 9.5, added to wells in polystyrene microtiter plates (Linbro) and the plates incubated overnight at 4° C. Following this incubation period, the plates were washed 5× with Tris-HCl, pH 7.4, containing 0.05% Tween 20, 50 mM NaCl and 100 mg per liter albumin (Sigma) and dried for 20 minutes at room temperature. The plates were screened with different anti-EA-R or EA-D antibody positive human sera and the monoclonal antibody to p17 or p50 to identify the optimal concentration of antigen to be used in the serological studies. Alkaline-phosphatase-labelled goat anti-human IgG (Sigma) or goat anti-mouse IgG (Sigma) was used as the indicator system.
For the testing of human sera for antibodies to native p17, p50 or to the synthetic peptides, sera were diluted 1:10 in ELISA buffer, added in 0.1 ml volumes to wells coated with optimal concentrations of antigen and the plates were incubated for 60 minutes at room temperature. After 4 washes with ELISA buffer, 100 μl of alkaline phosphatase-labelled goat anti-human IgG in ELISA buffer were added to each well and the plates were incubated at room temperature for 1 hour. Following four more washes in buffer, the enzyme reaction was performed by dissolving 1 mg per ml of Sigma alkaline phosphatase substrate in 1M diethanolamine buffer, pH 10.4, containing 1 mM MgCl2 and 0.1 mM ZnCl2, and 100 μl of the mixture was then added to each well. The reaction was allowed to proceed for 30 minutes at 37° C. and then the plates were screened directly with a microplate reader, TITERTEK MULTISKAN MC (Flow), at 420 nm. Readings above 0.1 which was 2× the background noted with antibody-negative sera were considered positive reactions.
When the entire 50.10 peptide was tested with 1M sera, 24/32 or 75% of the sera contained EA-D reactive antibody (IgG) (Table 4).
Serological reactivity of EA peptides p17.1 and p50.1 which contained additional amino acids on their amino and carboxy termini was tested on EBV IM acute sera which was EA positive. The ELISA results shown in Table 5 indicate that the additional amino acids improved reactivity for both EA peptides.
Immunofluorescence assays (IFA) were performed as described by Henle, et al. (Int. J. Cancer, 8:272-282, 1971). Western blot analysis was done by methods commonly used in the art (See for example, Coligan, et al., Current Protocols in Immunology, Wiley Interscience, 1991, Unit 12). Samples of EBV-infected cell lysates (P3HR-1) were tested with human whole antiserum from positive humans (Pearson, et al., Virology, 160:151-161, 1987). A comparison was made between EA serology by IFA, using the EA-D 50.1 peptide antisera, and ELISA serology using 50.1 peptide (see Example 2).

[2] = system: antibodies to peptides 50.10 (EA-D) and 17.1 (EA-R) in sequential sera; experiment: IgG ELISA on sequential sera of a patient with acute infectious mononucleosis; assay type: binding, human; settings: sera at 1.20 dilution, (+) >0.25
From the text: The early antigen D-R transition was followed in a patient during a course of acute infectious mononucleosis. Antibodies to peptides 50.10 (EA-D) and 17.1 (EA-R) were detected by ELISAs on specimens collected over a six month duration. […] Therefore, the peptides of the invention are useful for monitoring the course of EBV-associated disease in a patient.

[3] = 32 IM sera, values >0.5 positive (O.D. 420 nm)

KQKHPKKVKQAFNPL [p50.10, synthetic peptide from 50 Kd early antigen (EA-D) region of EBV]
% Positive [1, 3]: 75%
IM sera positive / tested [1, 3]: 24/32
ELISA result, peptides with and without extensions ([1]; sample no. 2241): 0.673
ELISA result, peptides with and without extensions ([1]; sample no. 12498): 0.342
ELISA result, peptides with and without extensions ([1]; sample no. 12836): 0.722
SCORE ([1]; IM serum sample no. 2241): + (Values >0.5 were considered positive (O.D. readings at 420 nm).)
SCORE ([1]; IM serum sample no. 11984): + (Values >0.5 were considered positive (O.D. readings at 420 nm).)
O.D. ([1]; IM serum sample no. 11984): 0.722
SCORE ([1]; IM serum sample no. 12005): − (Values >0.5 were considered positive (O.D. readings at 420 nm).)
O.D. ([1]; IM serum sample no. 12005): 0.441
SCORE ([1]; IM serum sample no. 12288): + (Values >0.5 were considered positive (O.D. readings at 420 nm).)
O.D. ([1]; IM serum sample no. 12288): 0.610
SCORE ([1]; IM serum sample no. 12407): + (Values >0.5 were considered positive (O.D. readings at 420 nm).)
O.D. ([1]; IM serum sample no. 12407): 0.751
SCORE ([1]; IM serum sample no. 12409): + (Values >0.5 were considered positive (O.D. readings at 420 nm).)
O.D. ([1]; IM serum sample no. 12409): 0.609
SCORE ([1]; IM serum sample no. 12418): − (Values >0.5 were considered positive (O.D. readings at 420 nm).)
O.D. ([1]; IM serum sample no. 12418): 0.382
SCORE ([1]; IM serum sample no. 12498): − (Values >0.5 were considered positive (O.D. readings at 420 nm).)
SCORE ([1]; IM serum sample no. 12502): − (Values >0.5 were considered positive (O.D. readings at 420 nm).)
O.D. ([1]; IM serum sample no. 12502): 0.270
SCORE ([1]; IM serum sample no. 12587): + (Values >0.5 were considered positive (O.D. readings at 420 nm).)
O.D. ([1]; IM serum sample no. 12587): 0.890
SCORE ([1]; IM serum sample no. 12600): − (Values >0.5 were considered positive (O.D. readings at 420 nm).)
O.D. ([1]; IM serum sample no. 12600): 0.323
SCORE ([1]; IM serum sample no. 12611): − (Values >0.5 were considered positive (O.D. readings at 420 nm).)
O.D. ([1]; IM serum sample no. 12611): 0.436
SCORE ([1]; IM serum sample no. 12801): + (Values >0.5 were considered positive (O.D. readings at 420 nm).)
O.D. ([1]; IM serum sample no. 12801): 0.605
SCORE ([1]; IM serum sample no. 12828): + (Values >0.5 were considered positive (O.D. readings at 420 nm).)
O.D. ([1]; IM serum sample no. 12828): 0.895
SCORE ([1]; IM serum sample no. 12829): + (Values >0.5 were considered positive (O.D. readings at 420 nm).)
O.D. ([1]; IM serum sample no. 12829): 0.652
SCORE ([1]; IM serum sample no. 12836): + (Values >0.5 were considered positive (O.D. readings at 420 nm).)
SCORE ([1]; IM serum sample no. 12837): + (Values >0.5 were considered positive (O.D. readings at 420 nm).)
O.D. ([1]; IM serum sample no. 12837): 1.491
SCORE ([1]; IM serum sample no. 12840): + (Values >0.5 were considered positive (O.D. readings at 420 nm).)
O.D. ([1]; IM serum sample no. 12840): 0.723
SCORE ([1]; IM serum sample no. 12888): + (Values >0.5 were considered positive (O.D. readings at 420 nm).)
O.D. ([1]; IM serum sample no. 12888): 0.847
SCORE ([1]; IM serum sample no. 12889): + (Values >0.5 were considered positive (O.D. readings at 420 nm).)
O.D. ([1]; IM serum sample no. 12889): 1.184
SCORE ([1]; IM serum sample no. 12892): + (Values >0.5 were considered positive (O.D. readings at 420 nm).)
O.D. ([1]; IM serum sample no. 12892): 0.634
SCORE ([1]; IM serum sample no. 12893): + (Values >0.5 were considered positive (O.D. readings at 420 nm).)
O.D. ([1]; IM serum sample no. 12893): 0.626
SCORE ([1]; IM serum sample no. 12899): + (Values >0.5 were considered positive (O.D. readings at 420 nm).)
O.D. ([1]; IM serum sample no. 12899): 0.895
SCORE ([1]; IM serum sample no. 12900): − (Values >0.5 were considered positive (O.D. readings at 420 nm).)
O.D. ([1]; IM serum sample no. 12900): 0.498
SCORE ([1]; IM serum sample no. 13075): − (Values >0.5 were considered positive (O.D. readings at 420 nm).)
O.D. ([1]; IM serum sample no. 13075): 0.252
SCORE ([1]; IM serum sample no. 13419): + (Values >0.5 were considered positive (O.D. readings at 420 nm).)
O.D. ([1]; IM serum sample no. 13419): 0.678
SCORE ([1]; IM serum sample no. 13637): + (Values >0.5 were considered positive (O.D. readings at 420 nm).)
O.D. ([1]; IM serum sample no. 13637): 0.886
SCORE ([1]; IM serum sample no. 13769): + (Values >0.5 were considered positive (O.D. readings at 420 nm).)
O.D. ([1]; IM serum sample no. 13769): 1.307
SCORE ([1]; IM serum sample no. 13929): + (Values >0.5 were considered positive (O.D. readings at 420 nm).)
O.D. ([1]; IM serum sample no. 13929): 1.031
SCORE ([1]; IM serum sample no. 14043): + (Values >0.5 were considered positive (O.D. readings at 420 nm).)
O.D. ([1]; IM serum sample no. 14043): 0.631
SCORE ([1]; IM serum sample no. 14128): + (Values >0.5 were considered positive (O.D. readings at 420 nm).)
O.D. ([1]; IM serum sample no. 14128): 0.693
SCORE ([1]; IM serum sample no. 14131): + (Values >0.5 were considered positive (O.D. readings at 420 nm).)
O.D. ([1]; IM serum sample no. 14131): 0.530
50.1 ELISA (OD reading) ([1]; acute EBV IM sample 12502, diluted 1:10, EA-D Western blot positive): 0.409
50.1 ELISA (OD reading) ([1]; acute EBV IM sample 12840, diluted 1:10, EA-D Western blot positive): 0.257
50.1 ELISA (OD reading) ([1]; acute EBV IM sample 13769, diluted 1:10, EA-D Western blot positive): 1.034
IgG ELISA O.D. reading ([2]; serum no. 9817, May 26, 1988): 0.104
IgG ELISA O.D. reading ([2]; serum no. 9820, May 31, 1988): 0.094
IgG ELISA O.D. reading ([2]; serum no. 9829, Jun. 07, 1988): 0.120
IgG ELISA O.D. reading ([2]; serum no. 9941, Jun. 20, 1988): 0.147
IgG ELISA O.D. reading ([2]; serum no. 9983, Jun. 27, 1988): 0.817
IgG ELISA O.D. reading ([2]; serum no. 10064, Jul. 18, 1988): 0.821
IgG ELISA O.D. reading ([2]; serum no. 10237, Aug. 29, 1988): 0.561
IgG ELISA O.D. reading ([2]; serum no. 10271, Sep. 20, 1988): 0.100
IgG ELISA O.D. reading ([2]; serum no. 10488, Oct. 21, 1988): 0.095
IgG ELISA O.D. reading ([2]; serum no. 10546, Nov. 15, 1988): 0.140

From US7988972B2, “Immunoreactive peptides from Epstein-Barr virus” (Ortho-Clinical Diagnostics, Inc., priority 1993, dated 2011)
